Tests used:
RalB [1] = target: T1, RalB (Homo sapiens, UniProt P11234); experiment: GST pulldown of activated RalB; format: cell-based; details: 2.0 μM
T1 construct: expressed in transfected cells; host or cells: HepG2 (from b6; the methods paragraph names no cell line)
T1 sequence (P11234 1-203 limits assumed): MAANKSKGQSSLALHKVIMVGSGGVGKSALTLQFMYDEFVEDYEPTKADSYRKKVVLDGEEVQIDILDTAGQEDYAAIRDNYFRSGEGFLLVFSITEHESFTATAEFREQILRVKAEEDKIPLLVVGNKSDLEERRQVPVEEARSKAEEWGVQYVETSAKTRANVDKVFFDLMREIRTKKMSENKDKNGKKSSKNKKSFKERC
Description: GST pulldown assays were performed to assess 4p RalA/B inhibitory capacities. […] Only activated RalA was suppressed after incubation with 0.5 μM of compound 4p (Figure 5A).
The in vitro RalA/B bioactivity assays were performed following methods outlined in previous reports. ([Yan et al., 2016]; [Zhang et al., 2018]; [Walsh et al., 2019]; [Bum-Erdene et al., 2020]). In brief, the lysates of the test compound or vehicle-treated cells were cleared using cold centrifugation, and supernatants were collected. An RalBP1 solution was added to 96-well plates and incubated for 1–2 h, and then the plates were washed thrice using ELISA buffer. Next, cellular lysates were added, and samples were incubated overnight at 4°C. Then, ice-cold mouse anti-FLAG antibody was added, and samples were incubated for one more hour. After subsequent washing with ELISA buffer thrice, the HRP-conjugated anti-mouse antibody was added, and samples were incubated for another hour. Then, the HRP substrate was added. Antigen–antibody reactions were quenched by the addition of sulfuric acid (2 mol/L). Remaining RalA/B was detected by the OD450 values which were collected by using a plate reader. Cell proliferation assays, colony formation assays, apoptosis assays, GST pulldown, and Western blotting were used following methods outlined in our previous reports. […]

RalB [2] = target: T1, RalB; experiment: ELISA-based RalB activity assay (RalBP1-coated plates, lysates of compound-treated cells); format: biochemical
Description: The in vitro RalA/B bioactivity assays were performed following methods outlined in previous reports. ([Yan et al., 2016]; [Zhang et al., 2018]; [Walsh et al., 2019]; [Bum-Erdene et al., 2020]). In brief, the lysates of the test compound or vehicle-treated cells were cleared using cold centrifugation, and supernatants were collected. An RalBP1 solution was added to 96-well plates and incubated for 1–2 h, and then the plates were washed thrice using ELISA buffer. Next, cellular lysates were added, and samples were incubated overnight at 4°C. Then, ice-cold mouse anti-FLAG antibody was added, and samples were incubated for one more hour. After subsequent washing with ELISA buffer thrice, the HRP-conjugated anti-mouse antibody was added, and samples were incubated for another hour. Then, the HRP substrate was added. Antigen–antibody reactions were quenched by the addition of sulfuric acid (2 mol/L). Remaining RalA/B was detected by the OD450 values which were collected by using a plate reader. Cell proliferation assays, colony formation assays, apoptosis assays, GST pulldown, and Western blotting were used following methods outlined in our previous reports. ([Zhou et al., 2015]; [Zhang et al., 2016]; [Yang et al., 2017]; [He et al., 2019]). Autophagy levels and protein immunoblotting were used following the methods mentioned in our previous reports ([Pan et al., 2018]; [Wang et al., 2018]; [Hao et al., 2019]; [Wang et al., 2019]; [Peng et al., 2020]). Detailed experimental procedures are described in supporting materials.

## COc1ccc(S(=O)(=O)NC2=C(C#N)C(c3ccc(C(F)(F)F)cc3)c3c(C)nn(-c4ccccc4)c3O2)cc1 (stereo not drawn) [4p, N-(5-cyano-3-methyl-1-phenyl-4-(4-(trifluoromethyl)phenyl)-1,4-dihydropyrano[2,3-c]-pyrazol-6-yl)-4-methoxybenzenesulfonamide]
RalB [1]
  activated RalB protein expression level: significantly suppressed
RalB [2]; 1 μM compound, % control = active (RalBP1-bound) RalB remaining
  remaining activity at 1 µM: 22%
RalB [2]; enzymatic inhibition, average of at least three independent replicates ± SD, read-out: Kinase activities (IC50, μM) RalB
  IC50: 0.41 ± 0.07 µM

— article PMC8634879, “Design, Synthesis, and Biological Evaluation of Pyrano[2,3-c]-pyrazole–Based RalA Inhibitors Against Hepatocellular Carcinoma” (Frontiers in Chemistry, 2021)
